Activity calls are given as the source filed them.
Assays:
Protein RecA = molecular target: T1, Protein RecA (Mycobacterium tuberculosis, UniProt P9WHJ3); assay: Fluorescence Cell-Free Homogeneous Dose Retest to Identify Inhibitors of RecA-Intein Splicing Activity. [Related pubchem assays (depositor defined):AID2097, AID2223, AID489010, AID492950]; type: functional
T1 sequence (P9WHJ3 whole entry): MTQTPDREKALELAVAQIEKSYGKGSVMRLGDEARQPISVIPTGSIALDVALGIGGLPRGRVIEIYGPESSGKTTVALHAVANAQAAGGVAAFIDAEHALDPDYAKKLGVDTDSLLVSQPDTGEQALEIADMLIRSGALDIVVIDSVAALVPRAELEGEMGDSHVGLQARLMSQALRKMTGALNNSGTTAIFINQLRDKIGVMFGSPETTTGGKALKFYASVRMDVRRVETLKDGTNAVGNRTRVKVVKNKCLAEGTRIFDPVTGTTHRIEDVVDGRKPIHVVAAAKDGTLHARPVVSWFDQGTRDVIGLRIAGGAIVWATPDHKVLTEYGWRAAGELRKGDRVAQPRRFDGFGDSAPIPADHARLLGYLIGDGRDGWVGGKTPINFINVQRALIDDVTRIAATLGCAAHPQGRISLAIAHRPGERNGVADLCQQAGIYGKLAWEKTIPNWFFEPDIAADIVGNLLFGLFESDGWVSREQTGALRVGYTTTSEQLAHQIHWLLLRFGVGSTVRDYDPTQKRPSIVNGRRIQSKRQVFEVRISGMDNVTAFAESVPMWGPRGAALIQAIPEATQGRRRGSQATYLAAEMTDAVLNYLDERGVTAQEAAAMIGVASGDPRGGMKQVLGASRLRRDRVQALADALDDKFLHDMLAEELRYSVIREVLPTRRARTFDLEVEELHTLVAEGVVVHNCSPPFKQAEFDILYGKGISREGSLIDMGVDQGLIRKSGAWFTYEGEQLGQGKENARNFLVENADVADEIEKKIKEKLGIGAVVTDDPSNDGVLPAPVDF

[1] = molecular target: G-protein coupled receptor 55 (Homo sapiens, UniProt Q9Y2T6); assay: selective activators of receptor GPR55 – imaging, U2OS cells, beta-arrestin-GFP redistribution, primary screen (AID 1961); type: functional
[2] = molecular target: T2, Replicative DNA helicase DnaB (Mycobacterium tuberculosis, UniProt P9WMR3); assay: DnaB intein splicing inhibitors, dose response, biochemical, cell-free fluorescence (AID 449749); type: functional
T2 sequence (P9WMR3 whole entry): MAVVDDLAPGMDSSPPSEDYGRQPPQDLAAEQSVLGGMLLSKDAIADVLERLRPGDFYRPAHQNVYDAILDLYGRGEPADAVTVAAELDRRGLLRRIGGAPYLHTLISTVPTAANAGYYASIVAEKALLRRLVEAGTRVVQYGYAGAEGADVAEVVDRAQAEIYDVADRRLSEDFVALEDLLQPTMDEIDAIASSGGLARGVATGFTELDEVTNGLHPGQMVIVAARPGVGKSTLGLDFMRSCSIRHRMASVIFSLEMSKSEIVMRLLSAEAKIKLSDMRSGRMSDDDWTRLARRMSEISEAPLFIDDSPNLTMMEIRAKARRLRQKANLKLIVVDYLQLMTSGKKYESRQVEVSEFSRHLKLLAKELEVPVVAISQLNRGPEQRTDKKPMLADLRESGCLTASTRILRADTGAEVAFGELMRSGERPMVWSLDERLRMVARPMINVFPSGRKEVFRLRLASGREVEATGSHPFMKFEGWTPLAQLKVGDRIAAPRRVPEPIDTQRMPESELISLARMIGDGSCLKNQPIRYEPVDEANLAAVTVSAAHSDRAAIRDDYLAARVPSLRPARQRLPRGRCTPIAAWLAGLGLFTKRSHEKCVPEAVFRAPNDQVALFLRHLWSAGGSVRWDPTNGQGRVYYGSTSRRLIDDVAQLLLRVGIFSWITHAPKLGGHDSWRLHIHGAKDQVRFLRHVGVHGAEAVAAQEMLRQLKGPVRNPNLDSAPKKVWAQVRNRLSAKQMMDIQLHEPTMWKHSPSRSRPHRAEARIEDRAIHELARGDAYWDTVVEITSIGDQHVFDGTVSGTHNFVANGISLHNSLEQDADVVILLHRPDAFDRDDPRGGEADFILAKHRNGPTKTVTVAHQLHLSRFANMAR

Salmon testes DNA = assay: acridine orange-DNA binding displacement – biochemical, fluorescence polarization, cherry-picked samples, set 2, artefact control for KSHV LANA DNA-binding inhibitor project, dose response (AID 504727); parameters: species or system Salmonidae
[3] = molecular target: UDP-galactopyranose mutase (Mycobacterium tuberculosis, UniProt P9WIQ1); assay: Inhibitors of Mycobacterium tuberculosis UDP-galactopyranose mutase (UGM) enzyme Measured in Biochemical System Using Plate Reader - 2105-02_Inhibitor_Dose_CherryPick_Activity. [Related pubchem assays (depositor defined):AID504439]
[4] = molecular target: T3, Endoribonuclease toxin MazF (Escherichia coli K-12, UniProt P0AE70); assay: substrate-only fluorescence increase artefacts – biochemical, single-stranded RNase substrate, counter-screen for MazEF activator project, dose response (AID 588502); type: functional
T3 sequence (P0AE70 whole entry): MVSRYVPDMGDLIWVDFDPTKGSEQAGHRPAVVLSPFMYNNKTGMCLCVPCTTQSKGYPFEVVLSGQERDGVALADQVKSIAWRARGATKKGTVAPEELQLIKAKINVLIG

[5] = molecular target: T3, Endoribonuclease toxin MazF; assay: activation of MazEF endoribonuclease cleavage – biochemical, fluorescence, single-stranded RNA substrate, uHTS hits, dose response (AID 588481); type: functional
ORF 73 = molecular target: T4, ORF 73 (Human herpesvirus 8, UniProt O40947); assay: KSHV LANA DNA-binding disruption – biochemical, fluorescence polarization, cherry-picked samples, dose response (AID 504725); parameters: species or system Human gammaherpesvirus 8;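 note: fluorescence polarization of a labeled DNA duplex reporting LANA DNA binding; potency is for inhibitors that block LANA binding to the DNA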
T4 sequence (O40947 whole entry): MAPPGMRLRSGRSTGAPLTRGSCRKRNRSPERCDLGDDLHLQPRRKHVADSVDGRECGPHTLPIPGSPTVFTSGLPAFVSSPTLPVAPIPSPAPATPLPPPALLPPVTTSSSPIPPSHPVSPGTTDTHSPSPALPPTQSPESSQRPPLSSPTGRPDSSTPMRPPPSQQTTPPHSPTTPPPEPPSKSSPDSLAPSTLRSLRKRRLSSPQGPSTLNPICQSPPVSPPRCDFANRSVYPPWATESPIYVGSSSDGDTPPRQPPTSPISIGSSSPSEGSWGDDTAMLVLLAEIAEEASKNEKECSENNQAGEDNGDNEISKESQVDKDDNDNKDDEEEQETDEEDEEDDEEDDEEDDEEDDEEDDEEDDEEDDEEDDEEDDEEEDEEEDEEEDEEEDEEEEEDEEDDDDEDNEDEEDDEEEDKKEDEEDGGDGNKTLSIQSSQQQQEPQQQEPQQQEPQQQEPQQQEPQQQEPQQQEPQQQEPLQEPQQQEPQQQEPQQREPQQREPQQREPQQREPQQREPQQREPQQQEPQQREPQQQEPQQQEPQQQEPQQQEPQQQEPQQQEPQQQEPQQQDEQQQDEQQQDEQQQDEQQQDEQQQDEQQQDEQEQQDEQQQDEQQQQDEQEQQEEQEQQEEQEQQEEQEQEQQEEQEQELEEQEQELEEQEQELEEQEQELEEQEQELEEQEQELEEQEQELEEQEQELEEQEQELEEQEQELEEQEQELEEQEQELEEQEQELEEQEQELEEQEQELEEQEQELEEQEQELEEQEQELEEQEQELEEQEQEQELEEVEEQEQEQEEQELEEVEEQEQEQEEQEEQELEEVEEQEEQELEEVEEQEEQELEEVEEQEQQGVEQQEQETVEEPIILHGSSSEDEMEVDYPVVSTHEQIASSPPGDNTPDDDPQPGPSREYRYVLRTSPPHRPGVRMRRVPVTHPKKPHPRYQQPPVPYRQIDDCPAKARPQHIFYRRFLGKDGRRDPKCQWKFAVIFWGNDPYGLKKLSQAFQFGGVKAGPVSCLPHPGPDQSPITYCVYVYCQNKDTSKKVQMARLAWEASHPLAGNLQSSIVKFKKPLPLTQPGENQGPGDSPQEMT

Keap1/Nrf2 = Keap1/Nrf2 (Homo sapiens, UniProt Q14145); assay: disruptors of Keap1 binding to Nrf2 peptide – biochemical, fluorescence polarization, cherry-picked samples, dose response (AID 588683)
[6] = molecular target: Phosphoethanolamine/phosphocholine phosphatase (Homo sapiens, UniProt Q8TCT1); assay: SAR assay for compounds that inhibit PHOSPHO1. [Related pubchem assays (depositor defined):AID1545, AID1565, AID1574]
Phosphomannomutase 2 = molecular target: T5, Phosphomannomutase 2 (Homo sapiens, UniProt O15305); assay: Counter screen SAR assay for PMM2 inhibitors via a fluorescence intensity assay. [Related pubchem assays (depositor defined):AID1545, AID1574]
T5 sequence (O15305 whole entry): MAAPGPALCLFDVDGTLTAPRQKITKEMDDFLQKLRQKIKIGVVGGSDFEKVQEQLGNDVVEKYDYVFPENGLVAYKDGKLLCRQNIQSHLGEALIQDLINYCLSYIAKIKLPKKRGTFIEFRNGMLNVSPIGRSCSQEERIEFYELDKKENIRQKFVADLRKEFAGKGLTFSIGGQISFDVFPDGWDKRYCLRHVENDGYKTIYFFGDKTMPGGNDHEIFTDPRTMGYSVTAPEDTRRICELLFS

[7] = molecular target: T6, Short transient receptor potential channel 4 (Mus musculus, UniProt Q9QUQ5); assay: potentiation of DAMGO-evoked TRPC4 calcium signal – cell-based, HEK293 TRPC4/mu-opioid, Fluo-4 calcium, EC20 DAMGO, dose response (AID 434941); type: functional
T6 sequence (Q9QUQ5 whole entry): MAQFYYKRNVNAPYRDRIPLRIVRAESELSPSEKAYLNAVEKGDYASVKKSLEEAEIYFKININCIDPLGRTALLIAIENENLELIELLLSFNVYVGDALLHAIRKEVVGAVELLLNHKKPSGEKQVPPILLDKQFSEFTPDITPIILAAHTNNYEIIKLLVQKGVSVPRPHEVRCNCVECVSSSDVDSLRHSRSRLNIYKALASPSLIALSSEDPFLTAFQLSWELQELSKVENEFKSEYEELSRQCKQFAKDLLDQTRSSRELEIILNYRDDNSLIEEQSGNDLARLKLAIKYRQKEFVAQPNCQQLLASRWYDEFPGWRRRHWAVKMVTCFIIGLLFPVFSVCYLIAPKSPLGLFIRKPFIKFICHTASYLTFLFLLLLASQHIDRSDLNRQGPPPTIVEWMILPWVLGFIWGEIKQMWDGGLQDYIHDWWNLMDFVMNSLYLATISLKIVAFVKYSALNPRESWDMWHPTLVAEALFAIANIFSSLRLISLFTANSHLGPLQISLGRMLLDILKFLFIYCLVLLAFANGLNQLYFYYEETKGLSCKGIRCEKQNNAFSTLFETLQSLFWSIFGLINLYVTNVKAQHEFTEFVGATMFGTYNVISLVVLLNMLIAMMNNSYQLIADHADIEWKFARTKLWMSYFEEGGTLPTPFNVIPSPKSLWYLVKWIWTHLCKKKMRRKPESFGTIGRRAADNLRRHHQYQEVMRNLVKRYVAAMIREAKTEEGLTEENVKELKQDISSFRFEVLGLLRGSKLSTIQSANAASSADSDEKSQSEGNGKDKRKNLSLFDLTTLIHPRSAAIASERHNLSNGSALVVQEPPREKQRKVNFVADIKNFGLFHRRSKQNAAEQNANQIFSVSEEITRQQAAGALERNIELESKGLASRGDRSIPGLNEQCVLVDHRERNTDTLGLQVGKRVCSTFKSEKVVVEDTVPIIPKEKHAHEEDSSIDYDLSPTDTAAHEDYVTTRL

Keap1/Nrf2, sequence (Q16236 whole entry): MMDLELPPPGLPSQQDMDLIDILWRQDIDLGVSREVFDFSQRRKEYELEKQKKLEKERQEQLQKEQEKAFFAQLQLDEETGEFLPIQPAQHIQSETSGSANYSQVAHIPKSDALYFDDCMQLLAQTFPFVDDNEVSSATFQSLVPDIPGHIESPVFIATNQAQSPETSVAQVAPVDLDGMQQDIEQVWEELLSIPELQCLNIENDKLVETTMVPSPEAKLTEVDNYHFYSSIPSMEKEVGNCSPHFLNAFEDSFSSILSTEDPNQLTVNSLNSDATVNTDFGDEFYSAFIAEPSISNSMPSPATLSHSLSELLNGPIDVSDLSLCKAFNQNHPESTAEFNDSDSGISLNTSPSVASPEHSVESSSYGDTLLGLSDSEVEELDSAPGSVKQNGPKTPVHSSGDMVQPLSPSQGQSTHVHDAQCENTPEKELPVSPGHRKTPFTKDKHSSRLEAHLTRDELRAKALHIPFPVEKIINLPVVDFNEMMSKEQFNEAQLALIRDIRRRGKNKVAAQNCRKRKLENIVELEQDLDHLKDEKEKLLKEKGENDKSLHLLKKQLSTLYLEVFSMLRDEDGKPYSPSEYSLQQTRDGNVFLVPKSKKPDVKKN
Keap1/Nrf2, sequence (Q14145 whole entry): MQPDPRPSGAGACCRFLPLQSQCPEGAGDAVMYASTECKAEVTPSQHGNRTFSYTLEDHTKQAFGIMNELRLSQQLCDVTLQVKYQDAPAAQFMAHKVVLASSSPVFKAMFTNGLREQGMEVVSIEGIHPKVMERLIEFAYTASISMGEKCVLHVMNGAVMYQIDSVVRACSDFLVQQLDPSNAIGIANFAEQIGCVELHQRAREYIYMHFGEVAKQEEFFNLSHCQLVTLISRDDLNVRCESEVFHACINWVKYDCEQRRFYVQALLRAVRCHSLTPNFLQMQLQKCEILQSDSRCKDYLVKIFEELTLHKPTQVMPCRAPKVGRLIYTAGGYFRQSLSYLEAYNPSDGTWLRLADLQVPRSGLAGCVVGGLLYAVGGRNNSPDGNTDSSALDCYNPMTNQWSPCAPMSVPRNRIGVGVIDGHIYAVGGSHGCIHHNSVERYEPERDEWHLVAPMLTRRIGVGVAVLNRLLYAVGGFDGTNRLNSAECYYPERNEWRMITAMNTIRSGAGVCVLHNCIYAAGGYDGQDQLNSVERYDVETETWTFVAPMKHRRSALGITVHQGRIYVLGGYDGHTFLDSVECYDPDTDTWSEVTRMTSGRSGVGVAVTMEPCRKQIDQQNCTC
Phosphoethanolamine/phosphocholine phosphatase, sequence (Q8TCT1 whole entry): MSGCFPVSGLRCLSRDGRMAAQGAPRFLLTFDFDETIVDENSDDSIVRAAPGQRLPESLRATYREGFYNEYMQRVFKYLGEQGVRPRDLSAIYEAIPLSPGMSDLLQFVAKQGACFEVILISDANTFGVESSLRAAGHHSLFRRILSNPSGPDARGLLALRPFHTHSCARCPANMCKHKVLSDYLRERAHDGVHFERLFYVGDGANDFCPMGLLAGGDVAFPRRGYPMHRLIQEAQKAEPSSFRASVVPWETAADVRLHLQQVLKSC
UDP-galactopyranose mutase, sequence (P9WIQ1 whole entry): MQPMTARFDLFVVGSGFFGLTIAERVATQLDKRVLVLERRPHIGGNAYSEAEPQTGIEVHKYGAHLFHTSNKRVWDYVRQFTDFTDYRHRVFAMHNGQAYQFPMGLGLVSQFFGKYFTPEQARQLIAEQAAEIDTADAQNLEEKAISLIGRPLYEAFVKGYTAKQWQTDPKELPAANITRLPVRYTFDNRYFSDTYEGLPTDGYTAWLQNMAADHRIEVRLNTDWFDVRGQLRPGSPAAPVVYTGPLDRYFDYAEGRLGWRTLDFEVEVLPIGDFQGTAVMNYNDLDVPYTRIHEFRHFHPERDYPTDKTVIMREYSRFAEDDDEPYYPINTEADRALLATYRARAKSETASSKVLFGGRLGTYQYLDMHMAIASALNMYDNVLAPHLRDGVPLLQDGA
G-protein coupled receptor 55, sequence (Q9Y2T6 whole entry): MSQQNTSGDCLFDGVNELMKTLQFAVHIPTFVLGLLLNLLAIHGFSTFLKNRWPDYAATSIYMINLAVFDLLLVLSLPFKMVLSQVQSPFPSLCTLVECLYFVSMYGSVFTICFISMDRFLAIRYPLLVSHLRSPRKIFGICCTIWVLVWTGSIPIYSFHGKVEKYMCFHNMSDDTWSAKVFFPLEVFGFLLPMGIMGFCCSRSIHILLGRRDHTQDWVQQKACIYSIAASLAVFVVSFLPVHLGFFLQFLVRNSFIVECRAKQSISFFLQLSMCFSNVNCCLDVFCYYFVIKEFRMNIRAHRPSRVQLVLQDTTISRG

In the case of `O=C(c1ccncc1)N(c1ccc2oc3c(c2c1)CCCC3)S(=O)(=O)c1ccc(F)cc1`, the EC50 (Protein RecA) is reported as 6.22 µM (active), the EC50 [1] is reported as > 32 µM (inactive) and the AC50 [2] is reported as 2.09 µM (active).

For `Cc1cc2nc3c(O)nc(S)nc3nc2cc1NC(=O)C(F)(F)F`, the AC50 (Salmon testes DNA) was 86.4 µM (active), the AC50 [3] was 19.6 µM (active) and the EC50 [4] was > 99 µM (inactive). The EC50 [5] was > 99 µM (inactive), the AC50 (ORF 73) was 40.6 µM (active) and the AC50 (Keap1/Nrf2) was > 52 µM (inactive).

For `CN(C)c1cccc(-n2sc3ccccc3c2=O)c1`, the IC50 [6] was 52.9 µM (inactive) and the IC50 (Phosphomannomutase 2) was 85.2 µM (active).

In the case of `O=C(c1cccc([N+](=O)[O-])c1)N1CCCC(C(=O)N2CCCCCC2)C1` (configuration not stated), the EC50 [7] is reported as 0.33 µM (active).
